Reference: patent US7294629B2, “Quinazoline derivatives” (Mitsubishi Pharma Corporation, priority 2001, dated 2007)
pIC50: −log10 of the molar value.

System: A431 tumor
Assay: In vivo antitumor effect on A431 tumor in nude mice
Parameters: species or system Balb/c female nude mice
Details: 1 mg/kg orally once a day for 14 days
Procedure: (4) In vivo Antitumor Effect
Human epidermoid cancer cell A431 (5×10^6/100 μl) suspended in PBS was subcutaneously implanted on the back of Balb/c female nude mice (Balb/cAJcl-nu mouse, Clea Japan, Inc., 5-week-old when purchased) and when the average volume of the implanted tumor reached approximately about 100 mm^3 in about 7 days, the mice were allocated (4 per group) to make the average tumor volume the same for each group. The tumor volume was obtained by measuring the long diameter and the short diameter with a caliper and according to: [(short diameter)^2×long diameter/2]=tumor volume [mm^3]. A pharmaceutical agent was forcibly administered orally once a day for 14 consecutive days from the day of the allocation, and the drug was not given to the mice of the control group. The relative tumor growth rate, with the tumor volume of the day of start of the administration as 1, was calculated for the control group and the treatment group. Antitumor effect (%) of control=(relative tumor growth rate of treatment group on the last day −1)/(relative tumor growth rate of control group on the last day −1)×100

SMILES | % of control (antitumor effect)
C=CC(=O)Nc1cc2c(Nc3ccc(F)c(Cl)c3)ncnc2cc1C#CC(C)(C)N1CCN(C)CC1 [compound 1a.2TsOH, 1a.ditosylate] | 41.0%

Same assay, conditions: 1 mg/kg orally once a day for 14 days; volume at start = 1

SMILES | relative tumor growth rate
C=CC(=O)Nc1cc2c(Nc3ccc(F)c(Cl)c3)ncnc2cc1C#CC(C)(C)N1CCN(C)CC1 [compound 1a.2TsOH, 1a.ditosylate] | 2.95

Same assay, conditions: A431 tumor, oral, 14 days

SMILES | antitumor effect (in words)
C=CC(=O)Nc1cc2c(Nc3ccc(F)c(Cl)c3)ncnc2cc1C#CC(C)(C)N1CCN(C)CC1 [compound 1a.2TsOH, 1a.ditosylate] | dose-dependent antitumor effect

Target: T1, mutated c-erbB2 (HER2) constitutively activated, in transformed NIH3T3 cells (A4 cell) (Homo sapiens, UniProt P04626, V659E)
T1 construct: expressed in transfected cells; host or cells: NIH3T3 mouse fibroblast cell line (A4 cell)
Assay: HER2 tyrosine kinase inhibitory action (phosphotyrosine Western blotting in A4 cells)
Format: cell-based
Details: 0.1 μM, 2 hrs, signal without compound = 100%, read-out: % of control at 0.1 μM (phosphorylation signal)
Procedure: (2) HER2 Tyrosine Kinase Inhibitory Action (Method)
As the cells, NIH3T3 mouse fibroblast cell line (provided by Institute of Development, Aging and Cancer, Tohoku University Cell Resource Center for Biomedical Research) transformed with mutated c-erbB2 constitutively activated by substituting valine at position 659 for glutamic acid was used. In the following, the cell is referred to as A4 cell. This cell line was cultured in DMEM/F12 mixed medium (hereinafter a complete medium) supplemented with 10% FBS in a plastic dish at 37° C., 5% CO2, 95% air.
The A4 cells suspended in a complete medium were seeded in a 12-well plate at 3×10^5/well, and confluent cells were cultured with the compound at 37° C. for 2 hrs. The cells were washed once with PBS, re-suspended in a lysis buffer (60 mM Tris (pH 6.8), 2% SDS, 10% glycerol, 5% beta-mercaptoethanol, 0.001% bromophenol blue), treated by ultrasonication and applied to Western blotting as a whole cell lysate.
The whole cell lysate (protein amount 25 μg) was applied to 7.5% SDS-polyacrylamide electrophoresis and transferred to PVDF membrane. The membrane was blocked and incubated with antiphosphotyrosine mouse monoclonal antibody in Tris buffer containing 0.1% Tween 20 and then treated with HRP-labeled antimouse second antibody. The membrane was developed with a chemiluminescent reagent. The chemiluminescence was taken with a lumino CCD camera and recorded electronically.

T1 sequence (P04626 23-1255 V659E): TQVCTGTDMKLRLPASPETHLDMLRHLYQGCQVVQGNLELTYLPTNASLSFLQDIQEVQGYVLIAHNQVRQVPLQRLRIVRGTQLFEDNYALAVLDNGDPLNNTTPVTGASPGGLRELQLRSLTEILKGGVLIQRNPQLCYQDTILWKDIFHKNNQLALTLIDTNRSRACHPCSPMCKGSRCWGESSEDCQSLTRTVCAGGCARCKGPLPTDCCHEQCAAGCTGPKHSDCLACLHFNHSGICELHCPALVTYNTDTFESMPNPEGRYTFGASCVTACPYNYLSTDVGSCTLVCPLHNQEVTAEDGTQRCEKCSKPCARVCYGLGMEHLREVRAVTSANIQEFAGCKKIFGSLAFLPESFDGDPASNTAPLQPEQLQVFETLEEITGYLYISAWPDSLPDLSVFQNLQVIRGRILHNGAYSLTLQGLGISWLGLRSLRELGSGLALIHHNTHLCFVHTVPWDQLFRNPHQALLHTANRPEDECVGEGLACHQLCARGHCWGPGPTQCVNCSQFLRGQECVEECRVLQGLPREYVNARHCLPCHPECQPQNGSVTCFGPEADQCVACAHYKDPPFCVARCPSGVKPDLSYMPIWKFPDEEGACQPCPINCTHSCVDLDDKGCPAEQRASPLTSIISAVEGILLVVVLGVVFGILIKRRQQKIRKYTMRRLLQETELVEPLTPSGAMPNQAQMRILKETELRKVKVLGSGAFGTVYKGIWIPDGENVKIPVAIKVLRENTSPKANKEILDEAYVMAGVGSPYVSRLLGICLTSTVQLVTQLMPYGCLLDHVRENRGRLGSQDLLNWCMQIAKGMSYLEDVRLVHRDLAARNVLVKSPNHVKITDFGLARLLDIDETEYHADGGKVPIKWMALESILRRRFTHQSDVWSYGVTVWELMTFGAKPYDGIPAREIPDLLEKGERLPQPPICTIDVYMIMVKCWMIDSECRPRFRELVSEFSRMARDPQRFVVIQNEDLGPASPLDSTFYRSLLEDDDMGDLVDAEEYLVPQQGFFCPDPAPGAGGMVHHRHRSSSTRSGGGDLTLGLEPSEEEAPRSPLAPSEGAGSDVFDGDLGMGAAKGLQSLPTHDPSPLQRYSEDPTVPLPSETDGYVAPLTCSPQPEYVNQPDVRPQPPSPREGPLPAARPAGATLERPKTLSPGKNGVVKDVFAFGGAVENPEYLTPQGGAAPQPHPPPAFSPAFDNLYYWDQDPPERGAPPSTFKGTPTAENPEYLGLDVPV

SMILES | remaining activity at 0.1 µM
C=CC(=O)Nc1cc2c(Nc3ccc(F)c(Cl)c3)ncnc2cc1C#CC(C)(C)N1CCNCC1 [1ap] | 74%
C=CC(=O)Nc1cc2c(Nc3ccc(F)c(Cl)c3)ncnc2cc1C#CCCN1CCN(C)CC1 [1ac] | 9%

Same assay, conditions: 1 μM, 2 hrs, signal without compound = 100%, read-out: % of control at 1 μM (phosphorylation signal)

SMILES | remaining activity at 1 µM
C=CC(=O)Nc1cc2c(Nc3ccc(F)c(Cl)c3)ncnc2cc1C#CC(C)(C)N1CCNCC1 [1ap] | 24%
C=CC(=O)Nc1cc2c(Nc3ccc(F)c(Cl)c3)ncnc2cc1C#CCCN1CCN(C)CC1 [1ac] | 3%

Target: T2, EGF receptor partially purified by A431 cell line (Homo sapiens, UniProt P00533)
T2 construct: A431 cell membrane fraction, which was used for the assay as an enzyme source of partially purified EGF receptor; endogenous in cells; host or cells: A431 human epidermoid cancer cells (membrane fraction, 100,000 G pellet)
Assay: EGFR tyrosine kinase inhibitory action (A431 cell membrane fraction, 32P-ATP, Angiotensin II substrate)
Format: biochemical
Details: EGF-stimulated, 10 μM ATP, in ice for 30 min
Procedure: Specific method was as follows.
A431 cells were cultured in Dulbecco's Modified Eagle Medium (DMEM) containing 10% of fetal calf serum (FBS) at 37° C. under 5% carbon dioxide gas, and homogenized in a solution containing 10 mM N-2-hydroxyethylpiperazino-N′-2-ethanesulfonic acid (Hepes) buffer (pH 7.4), 0.25 M sucrose and 0.1 mM EDTA, and separated by centrifugation at 3000 G for 5 min. The supernatant was separated by centrifugation at 100,000 G for 30 min to separate A431 cell membrane fraction, which was used for the assay as an enzyme source of partially purified EGF receptor.
The reaction was carried out in ice for 30 min and 6 μL of 10 mg/mL bovine serum albumin and 25 μL of 20% trichloroacetic acid were added to stop the reaction. The reaction mixture was left in ice as it was for 30 min.
The mixture was centrifuged at 5000 G for 2 min and the supernatant was sampled by 40 μL and adsorbed on P81 phosphocellulose paper. […] This rinsing was repeated 4 times. The paper was taken out, the ^32P count was measured on a liquid scintillation counter and this value was taken as A.
Simultaneously, a reaction without the test substance and a reaction without the test substance and EGF were also measured and the counts thereof were taken as B and C, respectively.
The tyrosine kinase inhibitory rate can be determined from the following formula based on these values. Percent Inhibition (%)=100−{(A−C)/(B−C)}×100

T2 sequence (P00533 25-1210): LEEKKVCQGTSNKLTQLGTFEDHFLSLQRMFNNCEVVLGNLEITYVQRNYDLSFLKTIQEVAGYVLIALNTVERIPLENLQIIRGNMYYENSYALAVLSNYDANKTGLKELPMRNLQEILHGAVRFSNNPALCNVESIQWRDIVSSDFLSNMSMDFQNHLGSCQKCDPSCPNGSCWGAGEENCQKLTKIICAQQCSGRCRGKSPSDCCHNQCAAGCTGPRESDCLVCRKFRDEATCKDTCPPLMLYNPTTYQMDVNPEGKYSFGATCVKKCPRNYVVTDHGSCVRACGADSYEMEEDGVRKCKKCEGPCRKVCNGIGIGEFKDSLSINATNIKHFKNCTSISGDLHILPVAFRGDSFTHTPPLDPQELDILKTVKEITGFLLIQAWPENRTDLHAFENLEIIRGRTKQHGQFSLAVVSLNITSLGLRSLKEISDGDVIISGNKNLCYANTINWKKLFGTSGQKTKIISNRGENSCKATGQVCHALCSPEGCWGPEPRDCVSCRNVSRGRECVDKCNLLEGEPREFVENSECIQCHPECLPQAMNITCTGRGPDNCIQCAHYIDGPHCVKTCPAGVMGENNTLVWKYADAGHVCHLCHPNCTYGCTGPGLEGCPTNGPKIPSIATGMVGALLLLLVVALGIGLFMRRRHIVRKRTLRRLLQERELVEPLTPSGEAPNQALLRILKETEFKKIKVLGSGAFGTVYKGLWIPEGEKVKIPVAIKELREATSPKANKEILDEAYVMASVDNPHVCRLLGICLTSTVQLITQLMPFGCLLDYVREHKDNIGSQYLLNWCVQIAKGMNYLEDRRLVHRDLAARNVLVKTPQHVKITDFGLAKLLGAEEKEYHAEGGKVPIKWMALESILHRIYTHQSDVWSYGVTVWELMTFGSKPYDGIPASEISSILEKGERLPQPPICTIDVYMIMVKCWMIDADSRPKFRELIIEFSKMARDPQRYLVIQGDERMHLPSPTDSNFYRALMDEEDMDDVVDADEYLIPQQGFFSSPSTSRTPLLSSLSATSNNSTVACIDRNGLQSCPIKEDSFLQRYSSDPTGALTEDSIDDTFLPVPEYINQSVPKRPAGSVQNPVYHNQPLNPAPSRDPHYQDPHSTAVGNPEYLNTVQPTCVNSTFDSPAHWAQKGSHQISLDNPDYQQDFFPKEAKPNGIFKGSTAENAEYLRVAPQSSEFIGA

SMILES | pIC50
CCOc1cc2ncnc(Nc3ccc(F)c(Cl)c3)c2cc1C#CC(CC)(CC)N1CCN(C)CC1 [1bag] | 8.29
C=CC(=O)Nc1cc2c(Nc3ccc(F)c(Cl)c3)ncnc2cc1C#CC(C)(C)N1CCNCC1 [1ap] | 8.62
CCOc1cc2ncnc(Nc3ccc(F)c(Cl)c3)c2cc1C#CC(C)(C)N1CCN(C)CC1 [1bp] | 8.68
CC(C)(C#Cc1cc2ncnc(Nc3ccc(F)c(Cl)c3)c2cc1NS(C)(=O)=O)N1CCN(CC#N)CC1 [1ca] | 8.11
CCOc1cc2ncnc(Nc3ccc(F)c(Cl)c3)c2cc1C#CC(C)(C)N(CC)CC [1br] | 8.24
CCOc1cc2ncnc(Nc3ccc(F)c(Cl)c3)c2cc1C#CC(C)(C)N1CCC(OC)CC1 [1baf] | 8.48
C#Cc1cccc(Nc2ncnc3cc(OCC)c(C#CC(C)(C)N4CCN(C)CC4)cc23)c1 [1bam] | 8.48
CCOc1cc2ncnc(Nc3ccc(F)c(Cl)c3)c2cc1C#CC(C)(C)N(C)CCN(C)C [1bo] | 8.66
COCCN1CCN(C(C)(C)C#Cc2cc3ncnc(Nc4ccc(F)c(Cl)c4)c3cc2NS(C)(=O)=O)CC1 [1cv] | 8.74
CCOc1cc2ncnc(Nc3ccc(F)c(Cl)c3)c2cc1C#CC(C)(C)N1CCC(O)CC1 [1bv] | 8.82
CN1CCN(C2(C#Cc3cc4ncnc(Nc5ccc(F)c(Cl)c5)c4cc3NS(C)(=O)=O)CCCCC2)CC1 [1cm] | 8.28
COc1cc2c(Nc3ccc(F)c(Cl)c3)ncnc2cc1C#CC(C)(C)N1CCN(CC#N)CC1 [1bj] | 8.54
CCOCCN(CCOCC)C(C)(C)C#Cc1cc2c(Nc3ccc(F)c(Cl)c3)ncnc2cc1OCC [1bu] | 8.49
CCOc1cc2ncnc(Nc3ccc(F)c(Cl)c3)c2cc1C#CC(C)(C)N1CCN(CCC#N)CC1 [1bae] | 8.60
COc1cc2ncnc(Nc3ccc(F)c(Cl)c3)c2cc1C#CC(C)(C)N1CCN(CC(C)C)CC1 [1be] | 8.10
C#Cc1cccc(Nc2ncnc3cc(OCC)c(C#CC(C)(C)N4CCOCC4)cc23)c1 [1baj] | 8.48
CCOc1cc2ncnc(Nc3ccc(F)c(Cl)c3)c2cc1C#CC(C)(C)N1CCN(CCOC)CC1 [1bah] | 8.59
CCOc1cc2ncnc(Nc3ccc(F)c(Cl)c3)c2cc1C#CC(C)(C)N1CCN(CC#N)CC1 [1bs] | 8.96
C=CC(=O)Nc1cc2c(Nc3ccc(F)c(Cl)c3)ncnc2cc1C#CC(C)(C)N1CCOCC1 [1b] | 8.89
C=CC(=O)Nc1cc2c(Nc3ccc(F)c(Cl)c3)ncnc2cc1C#CC(C)(C)N(C)C1CCN(C)CC1 [1ab] | 8.68
CCOc1cc2ncnc(Nc3ccc(F)c(Cl)c3)c2cc1C#CC(C)(C)N1CCCN(C)CC1 [1bw] | 8.55
CCN1CCN(C(C)(C)C#Cc2cc3ncnc(Nc4ccc(F)c(Cl)c4)c3cc2NS(C)(=O)=O)CC1 [1ch] | 8.59
CCOc1cc2ncnc(Nc3ccc(F)c(Cl)c3)c2cc1C#CC(C)(C)N1CCN(C(C)=O)CC1 [1baa] | 8.55
CN1CCC(N(C)C(C)(C)C#Cc2cc3ncnc(Nc4ccc(F)c(Cl)c4)c3cc2NS(C)(=O)=O)CC1 [1cj] | 8.57
C#Cc1cccc(Nc2ncnc3cc(OCC)c(C#CC(C)(C)N(C)CCN(C)C)cc23)c1 [1ban] | 8.59

SMILES | pIC50
CCCN1CCN(C(C)(C)C#Cc2cc3c(Nc4ccc(F)c(Cl)c4)ncnc3cc2OC)CC1 [1bd] | 8.52
COc1cccc(Nc2ncnc3cc(OC)c(C#CC(C)(C)N4CCN(C)CC4)cc23)c1 [1bh] | 8.36
COc1cc2ncnc(Nc3ccc(F)c(Cl)c3)c2cc1C#CC(C)(C)N1CCN(C)CC1 [1ba] | 8.96
C=CC(=O)Nc1cc2c(Nc3ccc(F)c(Cl)c3)ncnc2cc1C#CC(C)(C)N1CCN(CC#N)CC1 [1c] | 8.41
CC(C)(C#Cc1cc2ncnc(Nc3ccc(F)c(Cl)c3)c2cc1NS(C)(=O)=O)N1CCN(CCC#N)CC1 [1cw] | 8.60
C=CC(=O)Nc1cc2c(Nc3ccc(F)c(Cl)c3)ncnc2cc1C#CCCN1CCN(C)CC1 [1ac] | > 9.00
C#Cc1cccc(Nc2ncnc3cc(OCC)c(C#CC(C)(C)N4CCN(CC#N)CC4)cc23)c1 [1bai] | 8.74
CCC(C#Cc1cc2ncnc(Nc3ccc(F)c(Cl)c3)c2cc1NS(C)(=O)=O)(CC)N1CCN(C)CC1 [1cr] | 8.47
CCOc1cc2ncnc(Nc3ccc(F)c(Cl)c3)c2cc1C#CC(C)(C)N(CC)CCC(=O)OC [1bab] | 8.25
CCOc1cc2ncnc(Nc3ccc(F)c(Cl)c3)c2cc1C#CC(C)(C)N1CCCCC1 [1bn] | 8.46
CCOc1cc2ncnc(Nc3ccc(F)c(Cl)c3)c2cc1C#CC(C)(C)NCCN1CCOCC1 [1bx] | 8.47
COc1cc2c(Nc3ccc(F)c(Cl)c3)ncnc2cc1C#CC(C)(C)N1CCN(C)CC1 [1bi] | 9.00
CCOc1cc2ncnc(Nc3ccc(F)c(Cl)c3)c2cc1C#CC(C)(C)N(C)CCC#N [1bm] | 8.55
COc1cc2ncnc(Nc3ccc(F)c(Cl)c3)c2cc1C#CC(C)(C)N1CCN(CC#N)CC1 [1bb] | 8.89
CN1CCN(C(C)(C)C#Cc2cc3ncnc(Nc4ccc(F)c(Cl)c4)c3cc2NS(C)(=O)=O)CC1 [1cg] | 8.68
COc1cc2ncnc(Nc3ccc(F)c(Cl)c3)c2cc1C#CC(C)(C)N1CCNCC1 [1bc] | 8.80
CCOc1cc2ncnc(Nc3ccc(F)c(Cl)c3)c2cc1C#CC(C)(C)N1CCN(CC)CC1 [1bz] | 8.66
CCOc1cc2ncnc(Nc3ccc(F)c(Cl)c3)c2cc1C#CC(C)(C)N(C)CCOC [1bl] | 8.66
C=CC(=O)Nc1cc2c(Nc3ccc(F)c(Cl)c3)ncnc2cc1C#CC(C)(C)N1CCC(N(C)C)CC1 [1aa] | 8.77
CC(C)(C#Cc1cc2ncnc(Nc3ccc(F)c(Cl)c3)c2cc1NS(C)(=O)=O)N1CCCC1 [1cx] | 8.55
COc1cc2ncnc(Nc3ccc(F)c(Cl)c3)c2cc1/C=C/C(C)(C)N1CCN(C)CC1 [1bf] | 9.09
CCN(CCC(=O)OC)C(C)(C)C#Cc1cc2ncnc(Nc3ccc(F)c(Cl)c3)c2cc1NS(C)(=O)=O [1cu] | 8.26
CCOc1cc2ncnc(Nc3ccc(F)c(Cl)c3)c2cc1C#CC(C)(C)N1CCN(S(C)(=O)=O)CC1 [1bad] | 8.40
CCOc1cc2ncnc(Nc3ccc(F)c(Cl)c3)c2cc1C#CC(C)(C)N1CCOCC1 [1bk] | 8.68
CCOc1cc2ncnc(Nc3ccc(F)c(Cl)c3)c2cc1C#CC1(N2CCN(C)CC2)CCCCC1 [1bt] | 8.30
